Counter-ions that a name gives are not always drawn.
Assays:
[1] = system: Prozyme 6; experiment: Homogeneous aqueous enzymatic resolution (ester hydrolysis) with enzyme F; assay type: biochemical, Aspergillus oryzae; settings: for Conversion in Homogeneous Aqueous Reaction System: 30 °C
[2] = system: lipase from Candida cylindracea (Lipase OF); experiment: Activity of the carrier lipase against the ester; assay type: biochemical; settings: Meito Sangyo Company
[3] = system: Protease XVI; experiment: Homogeneous aqueous enzymatic resolution (ester hydrolysis) with enzyme C; assay type: biochemical, Bacillus subtilis; settings: 10.0 mmol ester in 100 ml 0.2 M phosphate buffer pH 7.0, 100 mg enzyme C, 20-22 °C, 20 hours
From the text: (§1) The enzymes used in Examples 6.2.1.1-6.2.1.17, 6.2.1.20-6.2.1.21, 6.2.1.23-6.2.1.28, 6.2.2.7, and 6.2.3.1-6.2.3.5 that follow were all proteases commercially available from Sigma Chemical Co., St. Louis, MO. These proteases are listed in each example using the Sigma numbering system, which is summarized below: • Protease VIII: "Subtilopeptidase A", product P-5380 (also known as subtilisin Carlsberg) • Protease XIV: from Streptomyces griseus, product P-5147 • Protease XVI: from Bacillus subtilis, product P-8775 • Protease XXIII: from Aspergillus oryzae, product P-4032 • Protease XXVII: "Nagarse", product P-4789 • Protease XXIV: bacterial protease, product P-8038 An additional protease enzyme, which was designated Prozyme 6, was obtained from the Amano Enzyme Corporation and used in Examples 6.2.1.18-6.2.19, 6.2.1.22, 6.2.1.29-6.2.1.30 and 6.2.2.1-6.2.2.4 described below. A pig liver esterase was used in Example 6.21.11; this enzyme, obtained from Sigma Chemical Company, was designated as their product E-3128. For examples 6.2.2.5-6.2.2.6, Candida lipase obtained from Genzyme Corporation was used. Finally, Candida lipase, product L-1754, obtained from Sigma Chemical Co. was used in Example 6.2.2.7.

[4] = molecular target: T1, Protease XXVII: "Nagarse" (Bacillus amyloliquefaciens, UniProt P00782); experiment: Homogeneous aqueous enzymatic resolution (ester hydrolysis) with enzyme D; assay type: biochemical; settings: 10.0 mmol ester in 100 ml 0.2 M phosphate buffer pH 7.0, 100 mg enzyme D, 20-22 °C, 20 hours
T1 sequence (P00782 108-382): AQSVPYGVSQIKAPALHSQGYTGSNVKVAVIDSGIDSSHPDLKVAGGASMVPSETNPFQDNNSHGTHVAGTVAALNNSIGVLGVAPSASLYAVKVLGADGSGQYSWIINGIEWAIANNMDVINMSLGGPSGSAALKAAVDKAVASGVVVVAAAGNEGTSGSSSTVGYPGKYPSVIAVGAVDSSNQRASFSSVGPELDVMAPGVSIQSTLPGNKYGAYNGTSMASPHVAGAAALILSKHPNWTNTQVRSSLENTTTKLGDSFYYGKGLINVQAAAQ
From the text: as §1

[5] = system: Protease XXIII; experiment: Homogeneous aqueous enzymatic resolution (ester hydrolysis) with enzyme A; assay type: biochemical, Aspergillus oryzae; settings: 10.0 mmol ester in 100 ml 0.2 M phosphate buffer pH 7.0, 100 mg enzyme A, 20-22 °C, 20 hours
Method: The enzymes used in Examples 6.2.1.1-6.2.1.17, 6.2.1.20-6.2.1.21, 6.2.1.23-6.2.1.28, 6.2.2.7, and 6.2.3.1-6.2.3.5 that follow were all proteases commercially available from Sigma Chemical Co., St. Louis, MO. […] For examples 6.2.2.5-6.2.2.6, Candida lipase obtained from Genzyme Corporation was used.
No further purification was performed.
The aqueous layer was retained.

[6] = system: Prozyme 6; experiment: Asymmetric hydrolysis in an extractive dispersion reactor with enzyme F; assay type: biochemical, Aspergillus oryzae; settings: 3.38 gm ester in 100 ml 0.2 M sodium phosphate buffer pH 7.0 and 100 ml hexane, 100 mg Prozyme 6, 3.5 hours at room temperature, vigorous stirring
Method: In this Example, the hexane was dispersed in the reaction vessel to extract the inhibitory ibuprofen acid as it is formed. The
reaction was started by adding 100 mg of the protease from the fungus Aspergillus oryzae (from Amano Enzyme Corporation, Prozyme 6, 60,000 units per mg of solid).
After 3.5 hours at room temperature with vigorous stirring, the solution was acidified to pH 2 and extracted with 2 volumes of hexane. The aqueous phase was saved for subsequent workup. The hexane phase was dried over MgS04 and evaporated to dryness. The resolved ibuprofen product so recovered consisted of 490 mg of white powder, indicating 24% conversion. The optical rotation was -0.568 (c = 1.015 in ethanol), indicating the R isomer of ibuprofen.

[7] = molecular target: T2, Protease VIII: "Subtilopeptidase A" (Bacillus licheniformis, UniProt P00780); experiment: Homogeneous aqueous enzymatic resolution (ester hydrolysis) with enzyme B; assay type: biochemical; settings: 10.0 mmol ester in 100 ml 0.2 M phosphate buffer pH 7.0, 100 mg enzyme B, 20-22 °C, 20 hours
T2 sequence (P00780 106-379): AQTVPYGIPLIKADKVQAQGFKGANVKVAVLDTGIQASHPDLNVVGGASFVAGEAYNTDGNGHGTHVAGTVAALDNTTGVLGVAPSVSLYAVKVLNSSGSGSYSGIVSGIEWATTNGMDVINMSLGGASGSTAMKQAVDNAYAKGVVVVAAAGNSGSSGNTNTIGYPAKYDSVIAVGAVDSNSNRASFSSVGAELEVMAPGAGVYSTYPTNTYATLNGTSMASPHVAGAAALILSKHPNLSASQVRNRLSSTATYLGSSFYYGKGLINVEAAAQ

[8] = system: Prozyme 6; experiment: Asymmetric hydrolysis in an extractive membrane reactor with enzyme F; assay type: biochemical, Aspergillus oryzae; settings: for enantiomeric excess: chiral HPLC, enzyme in aqueous phase only, 6.3 hours
[9] = system: intact microorganism; settings: 400 mg dried cells, 160 mg (±)-substrate; Iriuchijima and Keiyu 1981; cited from earlier work
[10] = system: Candida lipase (Genzyme Corporation); experiment: Asymmetric hydrolysis in a multiphase membrane bioreactor with enzyme G; assay type: biochemical, Candida cylindracea; settings: first 45 minutes; 0.75M ester in MIBK, 3.0 grams lipase in membrane, pH 8.50
From the text: The module was then drained.
This material was recrystallized from hexane.

[11] = molecular target: T1, Protease XXVII: "Nagarse"; experiment: Rate of hydrolysis of single enantiomers by pH stat, enzyme D; assay type: biochemical; settings: for Rate: 50 mM single enantiomer, 50 mM buffer pH 7.6, enzyme D
Method: (§2) 15 ml of a solution containing one enantiomer of the ester at a concentration of 50 mM, and Na3PO4 buffer at 50 mM and pH 7.6 was observed using a pH stat device. 0.1 ml of a 50 mg/ml solution of enzyme D, made up from the commercially available preparation in 50 mM Na3 P04 buffer at pH 7.6, were added. Rates of hydrolysis of both enantiomers of the ester compound were determined for the enzyme. The ratio of the rates of hydrolysis for the two enantiomers for the two enantiomers with respect to the enzyme indicate the stereospecificity of that enzyme's hydrolytic action on the racemic mixture of the ester. No evidence for the hydrolysis of the thioacetyl ester portion of the substrate molecule was found.

[12] = molecular target: T2, Protease VIII: "Subtilopeptidase A"; experiment: Rate of hydrolysis of single enantiomers by pH stat, enzyme B; assay type: biochemical; settings: for Rate: 50 mM single enantiomer, 50 mM buffer pH 7.6, enzyme B
Method: as §2, with “B,” for “D,”, “acetylthio” for “thioacetyl”

[13] = system: Protease XXIV: bacterial protease; experiment: Rate of hydrolysis of single enantiomers by pH stat, enzyme J; assay type: biochemical; settings: for Rate: 50 mM single enantiomer, 50 mM buffer pH 7.6, Example 6.2.3.4 (Enzyme J in text, (H) in table)
Method: as §2, with “Enzyme J,” for “enzyme D,”, “Na3PO4” for “Na3 P04”, “acetylthio” for “thioacetyl”

[14] = system: Protease XIV; experiment: Rate of hydrolysis of single enantiomers by pH stat, enzyme I; assay type: biochemical, Streptomyces griseus; settings: for Rate: 50 mM single enantiomer, 50 mM buffer pH 7.6, Example 6.2.3.2 (enzyme I in text, (G) in table)
Method: as §2, with “solution of protease enzyme I,” for “solution of enzyme D,”, “protease enzyme I, made up” for “of enzyme D, made up”, “50 mM Na3PO4 buffer at” for “50 mM Na3 P04 buffer at”, “for the protease enzyme. The” for “for the enzyme. The”, “ester. No” for “ester. No evidence for the hydrolysis of the thioacetyl ester portion of the substrate molecule was found.”
evidence for the hydrolysis of the acetylthio ester portion of the substrate molecule was found.

[15] = system: Protease XXIII; experiment: Rate of hydrolysis of single enantiomers by pH stat, enzyme A; assay type: biochemical, Aspergillus oryzae; settings: for Rate: 50 mM single enantiomer, 50 mM buffer pH 7.6, enzyme A
Method: as §2, with “A,” for “D,”, “acetylthio” for “thioacetyl”

## CC(C)Cc1ccc(C(C)C(=O)OCS(=O)(=O)O)cc1 (racemic) [Compound 1, Sodium Salt of 4-Sulfomethyl Ester of 2-(4-Isobutylphenyl) propanoic Acid]
[1]; 3.22 gm ester in 100 ml 0.2 M sodium phosphate buffer pH 7.0, 100 mg protease (F), 20 hours at room temperature
  conversion of racemic ester to acid: 45%
[1]; After 6.49 hours at 30 °C, 0.5 M ester in 325 ml 0.1 M sodium phosphate buffer pH 7.0, 3 gm enzyme (F)
  conversion: 37.7%
[1]; Time 6.75 hrs, 0.5 M ester in 325 ml 0.1 M sodium phosphate buffer pH 7.0, 3 gm enzyme (F)
  Conversion in Homogeneous Aqueous Reaction System: 37.7%
[1]; Time 23.1 hrs, 0.5 M ester in 325 ml 0.1 M sodium phosphate buffer pH 7.0, 3 gm enzyme (F)
  Conversion in Homogeneous Aqueous Reaction System: 40.9%
[2]
  activity of the enzyme against the ester: inactive
[3]
  % CONVERSION: 27.2%
[3]; acid product, R
  % e.e.: 70.7%
[4]
  % CONVERSION: 34.0%
[4]; acid product, R
  % e.e.: 37.7%
[5]
  % CONVERSION: 37.9%
[5]; acid product, R
  % e.e.: >99%
[6]
  conversion: 24%
[7]
  % CONVERSION: 29.1%
[7]; acid product, R
  % e.e.: 44.6%
[8]; R ibuprofen acid product
  enantiomeric excess: 99.3%
[8]; S ibuprofen from hydrolysis (pH 12) of the unconverted ester
  enantiomeric excess: 98.9%
[8]; enzyme in aqueous phase and in membrane pores (polyacrylonitrile fibers, 80% cyclohexane:20% toluene), 0.5 M ester, 3 gm protease (F), 6.75 hours at 30 °C
  conversion of the racemic ester to the acid: 48.3%
[8]; enzyme in aqueous phase only (cellulose dialysis fibers, hexane), 32.51 gm ester in 1000 ml 0.1 M sodium phosphate buffer pH 7.0, 2 gm protease (F), 6.3 hours at room temperature
  conversion of the racemic ester to ibuprofen acid: 50%

## COC(=O)C(C)c1ccc2cc(OC)ccc2c1 (racemic) [Compound 18, Methyl Ester of 2-(6-Methoxy-2-naphthyl)propanoic Acid]
[9]
  substrate converted: 16.3%
[10]
  average rate: 35 amol/hr

## CC(=O)SC[C@@H](C)C(=O)OCS(=O)(=O)O [Compound 14, Potassium Salt of the Sulfomethyl Ester of D-(-)-S-3-Acetylthio-2-methylpropanoic Acid]
[11]
  Rate: 27 umols/hr/mg
[12]
  Rate: 65 umols/hr/mg
[13]
  Rate: 61 umols/hr/mg
[14]
  Rate: 63 umols/hr/mg
[15]
  Rate: 5.3 umols/hr/mg

## CC(=O)SC[C@H](C)C(=O)OCS(=O)(=O)O [Compound 15, Potassium Salt of the Sulfomethyl Ester of L-(+)-S-3-Acetylthio-2-methylpropanoic Acid]
[11]
  Rate: 29 umols/hr/mg
[11]; enzyme D, pH 7.6
  Rate Ratio L/D: 1.1
[12]
  Rate: 135 umols/hr/mg
[12]; enzyme B, pH 7.6
  Rate Ratio L/D: 2.1
[13]
  Rate: 65 umols/hr/mg
[13]; Example 6.2.3.4, pH 7.6
  Rate Ratio L/D: 1.1
[14]
  Rate: 105 umols/hr/mg
[14]; Example 6.2.3.2, pH 7.6
  Rate Ratio L/D: 1.7
[15]
  Rate: 12 umols/hr/mg
[15]; enzyme A, pH 7.6
  Rate Ratio L/D: 2.3

— EP0423133B1, “ENZYMATIC RESOLUTION SYSTEMS AND COMPOUNDS USEFUL IN THE SYSTEMS AND THEIR REPARATIONS” (priority 1988, dated 1989)
